From publication PMC6037691, “Selenazolyl-hydrazones as Novel Selective MAO Inhibitors With Antiproliferative and Antioxidant Activities: Experimental and In-silico Studies” (Frontiers in Chemistry, 2018)

How the values were obtained:
[1] = test system: A549 (non-small cell lung); assay: Antiproliferative activity, A549; format: cell-based, human; details: Homo sapiens
Protocol: (§1) The in vitro antiproliferative activity of investigated compounds was evaluated against six human solid tumor cell lines: A549 (non-small cell lung), HBL-100, (breast), HeLa (cervix), SW1573 (non-small cell lung), as drug sensitive lines, T-47D (breast) and WiDr (colon) as drug resistant lines. These cell lines were a kind gift from Prof. G. J. Peters (VU Medical Center, Amsterdam, The Netherlands). For selectivity studies, the human fibroblasts BJ-hTert cell line was used, which was obtained from Dr. R. Freire (HUC, Tenerife, Canary Islands). Cells were kept in culture medium under standard conditions: RPMI 1640 medium, fetal bovine serum (5%), glutamine (2 mM), penicillin G (100 units/mL) and streptomycin (0.1 mg/mL). Antiproliferative tests were conducted as described earlier (Skehan et al., [1990]; Miranda et al., [2006]). Tested compounds were dissolved in DMSO at an initial concentration of 40 mM. DMSO was used as negative control (0.25% v/v). Antiproliferative activity of the compounds was expressed as GI50, which is the concentration of the compound that inhibits 50% of the culture growth.

[2] = test system: T-47D (breast); assay: Antiproliferative activity, T-47D; format: cell-based, human; details: for GI50: Homo sapiens, T47D
Protocol: as §1

[3] = test system: HeLa (cervix); assay: Antiproliferative activity, HeLa; format: cell-based, human; details: Homo sapiens
Protocol: as §1

[4] = test system: human fibroblasts BJ-hTert cell line; assay: Selectivity, non-transformed fibroblasts BJ-hTert; format: cell-based; details: Fibroblast; BJ-hTert normal human cell line; concentrations up to 100 μM
Protocol: as §1

[5] = test system: WiDr (colon); assay: Antiproliferative activity, WiDr; format: cell-based, human; details: for GI50: Homo sapiens
Protocol: as §1

[6] = test system: SW1573 (non-small cell lung); assay: Antiproliferative activity, SW1573; format: cell-based, human; details: Homo sapiens
Protocol: as §1

[7] = test system: HBL-100 (breast); assay: Antiproliferative activity, HBL-100; format: cell-based, human; details: Homo sapiens
Protocol: as §1

[8] = Total reducing power (TRP), modified potassium ferricyanide reduction method; details: concentration providing 0.500 of absorbance at 700 nm; mean ± SD, n = 3
Protocol: The mixture containing 0.5 mL of phosphate buffer (0.2 M, pH = 6.6), 0.5 mL of K3[Fe(CN)6] (1%; w/v) and 0.5 mL of the samples (100–1,500 μM) was incubated at 50°C for 20 min. A volume of 0.5 mL of trichloroacetic acid (TCA, 10%; w/v), 0.5 mL of Milli-Q water and 0.5 mL of FeCl3 (0.1%; w/v) was added, followed by intensive vortexing. The absorbance of the resulting mixture was measured after 60 min at 700 nm using phosphate buffer as blank (Oyaizu, [1986]).
(§2) Volume of 0.4 mL of sample solution (50–1,000 μM) was mixed with 1.6 mL of reagent solution [0.6 M H2SO4, 28 mM Na3PO4, and 4 mM (NH4)2MoO4] and resulting mixtures were incubated at 95°C for 90 min. The cooled reaction mixtures were then centrifuged for 10 min (3,000 rpm). The absorbance of the supernatant solution was measured, 1 h after centrifugation, at 695 nm against reagent solution as blank. An increased absorbance in reading in both assays indicated increased antioxidant power, expressed as EC50 values (the sample concentration giving absorbance of 0.500 from the graph of absorbance at 700 nm or 695 nm against compound concentration) (Prieto et al., [1999]).

[9] = molecular target: T1, MAO A (Homo sapiens, UniProt P21397); assay: MAO A inhibition, discontinuous fluorimetric kynuramine assay; format: biochemical; details: for inhibition at 1 µM: 1 μM inhibitor, mean ± SD, n = 2, normalized to control
T1 construct: purchased Sigma-Aldrich
T1 sequence (P21397 1-527): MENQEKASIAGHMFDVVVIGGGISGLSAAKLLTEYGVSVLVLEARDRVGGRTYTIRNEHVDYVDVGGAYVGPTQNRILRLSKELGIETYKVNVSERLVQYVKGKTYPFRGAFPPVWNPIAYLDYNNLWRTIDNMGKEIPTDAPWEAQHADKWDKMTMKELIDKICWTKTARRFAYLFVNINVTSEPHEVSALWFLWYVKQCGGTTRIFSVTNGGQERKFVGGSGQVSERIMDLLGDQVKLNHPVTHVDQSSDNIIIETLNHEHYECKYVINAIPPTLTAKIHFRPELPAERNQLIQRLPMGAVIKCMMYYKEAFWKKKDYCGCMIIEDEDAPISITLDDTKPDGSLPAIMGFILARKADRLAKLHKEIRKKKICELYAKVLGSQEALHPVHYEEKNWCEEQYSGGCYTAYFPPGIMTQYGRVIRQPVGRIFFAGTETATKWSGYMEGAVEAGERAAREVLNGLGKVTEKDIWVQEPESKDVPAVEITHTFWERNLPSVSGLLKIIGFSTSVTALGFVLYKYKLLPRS
Protocol: (§3) MAO A and B inhibition capacities were investigated using a discontinuous fluorimetric assay (Meiring et al., [2013]) as described previously by using human recombinant membrane-bound MAO purchased from Sigma-Aldrich (Affini et al., [2018]). Briefly, remained enzyme activity with inhibitor, either 1 μM (one-point) or concentrations ranging from 0.0001 to 10 μM, was assessed in the presence of kynuramine [2 × KM, KM = 20 μM (MAO A), KM = 30 μM (MAO B)] in potassium phosphate buffer (pH 7.4). Reactions were started by addition of enzyme and stopped by manual addition of sodium hydroxide (2 N) after 20 min. Enzyme activity was determined by detection of 4-hydroxyquinoline (λEx = 320 nm, λEm = 405 nm). Data were analyzed using GraphPad PRISM 6. For one-point measurements data were calculated as percentage of control and expressed as mean ± standard deviation (%). […] Data were obtained from two (one-point measurements) or at least three (IC50 values) independent experiments, each performed in duplicates.

[10] = DPPH scavenging antioxidant assay; details: concentration providing 50% of radicals scavenging activity; mean ± SD, n = 3
Protocol: The experiments were performed according to the literature protocol (Prior et al., [2005]). All tested compounds were initially dissolved in DMSO. The initial concentration of DPPH in methanol was 6.58 × 10^−5 M. A volume of 140 μL of DPPH solution was placed into a 96-well microplate, and then 10 μL solution of the tested compounds was added. Pure DMSO (10 μL) was used as the control. The absorbance at 517 nm was measured after 30 min period of incubation in the dark at 25°C. The Equation (1) was used for calculation of the scavenging activity:
(1) Scavenging activity (%)=Acontrol- Asample/Acontrol×100
where Asample and Acontrol refer to the absorbances at 517 nm of the sample and control, respectively. IC50 values were calculated from the graph of scavenging activity against the concentrations of the samples. IC50 represents the total antioxidant concentration of the sample which decreases the amount of the initial DPPH radical by 50%. Ascorbic acid (vitamin C) was used as positive control (concentration range 10–500 μM).

[11] = Total antioxidant capacity (TAOC), modified phosphomolybdenum method; details: concentration providing 0.500 of absorbance at 695 nm; mean ± SD, n = 3
Protocol: as §2

[12] = molecular target: T2, MAO B (Homo sapiens, UniProt P27338); assay: MAO B inhibition, discontinuous fluorimetric kynuramine assay; format: biochemical; details: for inhibition at 1 µM: 1 μM inhibitor, mean ± SD, n = 2, normalized to control
T2 construct: purchased Sigma-Aldrich
T2 sequence (P27338 1-520): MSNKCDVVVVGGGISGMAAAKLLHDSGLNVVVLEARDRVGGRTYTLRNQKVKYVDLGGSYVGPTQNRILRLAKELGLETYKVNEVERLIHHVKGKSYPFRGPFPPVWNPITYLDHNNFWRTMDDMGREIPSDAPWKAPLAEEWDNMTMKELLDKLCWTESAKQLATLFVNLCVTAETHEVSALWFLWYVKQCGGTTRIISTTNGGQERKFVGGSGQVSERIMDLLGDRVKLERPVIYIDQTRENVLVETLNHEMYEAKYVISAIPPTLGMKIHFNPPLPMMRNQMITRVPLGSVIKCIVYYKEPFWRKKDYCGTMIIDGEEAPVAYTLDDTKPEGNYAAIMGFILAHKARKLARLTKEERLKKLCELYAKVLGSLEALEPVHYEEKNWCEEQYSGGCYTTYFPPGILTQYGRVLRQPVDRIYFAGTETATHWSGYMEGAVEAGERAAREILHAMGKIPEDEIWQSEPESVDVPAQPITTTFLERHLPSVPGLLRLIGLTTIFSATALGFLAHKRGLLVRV
Protocol: as §3

[13] = test system: six human solid tumor cell lines; assay: Antiproliferative activity, panel as a whole; format: cell-based; design: key: moderate activity (GI50 = 10–100 μM); good activity (GI50 = 1–10 μM); inactive (GI50 > 100 μM)
Protocol: as §1

[14] = mean, 95% CI, at least three experiments

Compound | GI50 [1] | GI50 [2] | GI50 [3] | GI50 [4] | GI50 [5] | GI50 [6] | GI50 [7] | EC50 [8] | inhibition at 1 µM [9] | GI50 ([2]; T-47D) | IC50 [10] | EC50 [11] | melting point | inhibition at 1 µM [12] | antiproliferative activity class against five cell lines ([13]; five cell lines of the six) | IC50 [9, 14] | antiproliferative activity class T-47D ([2]; T-47D) | antiproliferative activity class WiDr [5] | IC50 [12, 14] | antiproliferative activity class against all six cell lines ([13]; all six cell lines)
O=c1[nH]cc(F)c(=O)[nH]1 [5-fluorouracil, reference compound] | > 100 µM | 47 ± 18 µM | 15 ± 4.7 µM | 5.5 ± 0.5 µM | 49 ± 6.7 µM | 4.6 ± 1.5 µM | 4 ± 0.7 µM |  |  |  |  |  |  |  |  |  |  |  |  | 
Cc1ccc(-c2c[se]c(NN=Cc3ccccc3)n2)cc1 [Compound 1-Me, 2-(2-benzylidenehydrazinyl)-4-(p-tolyl)-1,3-selenazole] | > 100 µM |  | > 100 µM | > 100 µM | > 100 µM | 47 ± 3 µM | > 100 µM | 966 ± 88 µM | 12.7 ± 3.5% | > 100 µM | 45.1 ± 6.53 µM | 603 ± 61 µM | 174 to 176 °C | 23.4 ± 17.1% | inactive |  |  |  |  | 
O=[N+]([O-])c1ccc(C=NNc2nc(-c3ccccc3)c[se]2)cc1 [Compound 4, 2-(2-(4-nitrobenzylidene)hydrazinyl)-4-phenyl-1,3-selenazole] | 16 ± 3.5 µM |  | 31 ± 8.5 µM | > 100 µM | 6.9 ± 1.3 µM | 23 ± 1.2 µM | > 100 µM | 376 ± 51 µM | 71.9 ± 3.5% | 6.3 ± 1.1 µM | 44.8 ± 2.3 µM | 433 ± 43 µM |  | 96.3 ± 0.5% |  | 0.258 µM | good activity (good activity (GI50 = 1–10 μM)) | good activity (good activity (GI50 = 1–10 μM)) | 0.073 µM | 
Cc1ccc(-c2c[se]c(NN=Cc3ccc([N+](=O)[O-])cc3)n2)cc1 [Compound 4-Me, 2-(2-(4-nitrobenzylidene)hydrazinyl)-4-(p-tolyl)-1,3-selenazole] | > 100 µM |  | > 100 µM | > 100 µM | > 100 µM | > 100 µM | > 100 µM | 495 ± 48 µM | 22.1 ± 2.1% | > 100 µM | 40.1 ± 4.7 µM | 579 ± 51 µM | 228 to 230 °C | 48.1 ± 2.9% |  |  |  |  |  | inactive
COc1ccc(-c2c[se]c(NN=Cc3ccc([N+](=O)[O-])cc3)n2)cc1 [Compound 4-OMe, 4-(4-methoxyphenyl)-2-(2-(4-nitrobenzylidene)hydrazinyl)-1,3-selenazole] | 16 ± 5.3 µM |  | 33 ± 10 µM | > 100 µM | > 100 µM | 26 ± 17 µM | 47 ± 13 µM | 398 ± 44 µM | 49.4 ± 1.3% | 66 ± 17 µM | 79.2 ± 3.9 µM | 645 ± 53 µM | 208 to 211 °C | 42.5 ± 19% |  |  |  |  |  | 
O=C1O[C@H]([C@@H](O)CO)C(O)=C1O [vitamin C, Ascorbic acid, reference compound] |  |  |  |  |  |  |  | 155 ± 39 µM |  |  | 79.1 ± 1.8 µM | 140 ± 10 µM |  |  |  |  |  |  |  | 
